Laboratory results reported in ChEMBL document CHEMBL5360532, “Current scenario of quinolone hybrids with potential antibacterial activity against ESKAPE pathogens” (Eur J Med Chem, 2023).

What was measured:
Format in all cases: functional
Staphylococcus aureus [1] = experiment: Antibacterial activity against Staphylococcus aureus ATCC 25923 assessed as bacterial growth inhibition measured after 18 to 24 hrs by two fold microdilution assay; details: time 18-24 hrs
Escherichia coli [2] = experiment: Antibacterial activity against Escherichia coli ATCC 35218 assessed as bacterial growth inhibition measured after 18 to 24 hrs by two fold microdilution assay; details: ATCC35218, time 18-24 hrs
Klebsiella pneumoniae [3] = experiment: Antibacterial activity against Klebsiella pneumoniae assessed as bacterial growth inhibition measured after 18 to 24 hrs by two fold microdilution assay; details: time 18-24 hrs
Escherichia coli [4] = experiment: Antibacterial activity against Escherichia coli ATCC 25922 assessed as bacterial growth inhibition by agar disc diffusion assay
Pseudomonas aeruginosa [5] = experiment: Antibacterial activity against Pseudomonas aeruginosa ATCC 27853 assessed as bacterial growth inhibition by agar disc diffusion assay
Staphylococcus aureus [6] = experiment: Antibacterial activity against Staphylococcus aureus ATCC 25923 assessed as bacterial growth inhibition by agar disc diffusion assay
Staphylococcus aureus [7] = experiment: Antibacterial activity against Staphylococcus aureus clinical isolate 1 assessed as bacterial growth inhibition by agar disc diffusion assay
Escherichia coli [8] = experiment: Antibacterial activity against Escherichia coli clinical isolate 1 assessed as bacterial growth inhibition by agar disc diffusion assay
Pseudomonas aeruginosa [9] = experiment: Antibacterial activity against Pseudomonas aeruginosa clinical isolate 1 assessed as bacterial growth inhibition by agar disc diffusion assay
Alternaria = experiment: Antifungal activity against Alternaria assessed as fungal growth inhibition measured after 7 days by agar disc diffusion assay; details: 168 h, time 7 day
[10] = system: Fusarium oxysporum f. sp. lycopersici; experiment: Antifungal activity against Fusarium oxysporum f. sp. lycopersici assessed as fungal growth inhibition measured after 7 days by agar disc diffusion assay; details: 168 h, time 7 day
Acinetobacter baumannii = experiment: Antibacterial activity against Acinetobacter baumannii assessed as bacterial growth inhibition by agar dilution assay
Pseudomonas aeruginosa [11] = experiment: Antibacterial activity against Pseudomonas aeruginosa ATCC 27853 assessed as bacterial growth inhibition by agar dilution assay
Staphylococcus aureus [12] = experiment: Antibacterial activity against Staphylococcus aureus assessed as bacterial growth inhibition by agar dilution assay
Staphylococcus aureus [13] = experiment: Antibacterial activity against methicillin resistant Staphylococcus aureus assessed as bacterial growth inhibition by agar dilution assay
Escherichia coli [14] = experiment: Antibacterial activity against Escherichia coli ATCC 25922 assessed as bacterial growth inhibition by agar dilution assay
Klebsiella pneumoniae [15] = experiment: Antibacterial activity against Klebsiella pneumoniae assessed as bacterial growth inhibition by agar dilution assay
Staphylococcus aureus [16] = experiment: Antibacterial activity against Staphylococcus aureus ATCC 25923 assessed as bacterial growth inhibition by agar dilution assay
Staphylococcus aureus [17] = experiment: Antibacterial activity against Staphylococcus aureus ATCC 29213 assessed as bacterial growth inhibition by agar dilution assay
Staphylococcus aureus [18] = experiment: Antibacterial activity against methicillin resistant Staphylococcus aureus assessed as bacterial growth inhibition measured after 24 hrs by serial dilution method
Escherichia coli [19] = experiment: Antibacterial activity against Escherichia coli assessed as bacterial growth inhibition measured after 24 hrs by serial dilution method
Escherichia coli [20] = experiment: Antibacterial activity against Escherichia coli assessed as zone of inhibition at 250 ug/ml by agar well diffusion assay; details: read-out: IZ
Klebsiella pneumoniae [21] = experiment: Antibacterial activity against Klebsiella pneumoniae assessed as zone of inhibition at 250 ug/ml by agar well diffusion assay; details: read-out: IZ
Pseudomonas aeruginosa [22] = experiment: Antibacterial activity against Pseudomonas aeruginosa assessed as zone of inhibition at 250 ug/ml by agar well diffusion assay; details: read-out: IZ
Staphylococcus aureus [23] = experiment: Antibacterial activity against Staphylococcus aureus assessed as zone of inhibition at 250 ug/ml by agar well diffusion assay; details: read-out: IZ
Staphylococcus aureus [24] = experiment: Antibacterial activity against vancomycin-intermediate methicillin resistant Staphylococcus aureus ATCC 700788 assessed as bacterial growth inhibition measured after 16 to 18 hrs by serial dilution method; details: time 16-18 hrs
Staphylococcus aureus [25] = experiment: Antibacterial activity against Staphylococcus aureus ATCC 6538p assessed as bacterial growth inhibition by agar dilution method
[26] = system: Staphylococcus epidermidis; experiment: Antibacterial activity against Staphylococcus epidermidis ATCC 12228 assessed as bacterial growth inhibition by agar dilution method
Bacillus subtilis = experiment: Antibacterial activity against Bacillus subtilis PTCC 1023 assessed as bacterial growth inhibition by agar dilution method
Escherichia coli [27] = experiment: Antibacterial activity against Escherichia coli ATCC 8739 assessed as bacterial growth inhibition by agar dilution method
Klebsiella pneumoniae [28] = experiment: Antibacterial activity against Klebsiella pneumoniae ATCC 10031 assessed as bacterial growth inhibition by agar dilution method
Enterobacter cloacae = experiment: Antibacterial activity against Enterobacter cloacae PTCC 1003 assessed as bacterial growth inhibition by agar dilution method
SiHa = experiment: Growth inhibition of human SiHa cells measured after 48 hrs by SRB assay
MDA-MB-231 = experiment: Growth inhibition of human MDA-MB-231 cells measured after 48 hrs by SRB assay
Staphylococcus aureus [29] = experiment: Antibacterial activity against clinical isolate aminoglycosides/tetracycline/methicillin resistant Staphylococcus aureus NRS 1 assessed as bacterial growth inhibition measured after 16 to 18 hrs by serial dilution method; details: time 16-18 hrs
Staphylococcus aureus [30] = experiment: Antibacterial activity against clinical isolate erythromycin/methicillin resistant Staphylococcus aureus NRS 70 assessed as bacterial growth inhibition measured after 16 to 18 hrs by serial dilution method; details: time 16-18 hrs
Staphylococcus aureus [31] = experiment: Antibacterial activity against clinical isolate oxacillin/tetracycline/methicillin resistant Staphylococcus aureus NRS 100 assessed as bacterial growth inhibition measured after 16 to 18 hrs by serial dilution method; details: time 16-18 hrs
Staphylococcus aureus [32] = experiment: Antibacterial activity against clinical isolate gentamycin/methicillin resistant Staphylococcus aureus NRS 108 assessed as bacterial growth inhibition measured after 16 to 18 hrs by serial dilution method; details: time 16-18 hrs
Staphylococcus aureus [33] = experiment: Antibacterial activity against clinical isolate linezolid/methicillin resistant Staphylococcus aureus NRS 271 assessed as bacterial growth inhibition measured after 16 to 18 hrs by serial dilution method; details: time 16-18 hrs
Staphylococcus aureus [34] = experiment: Antibacterial activity against fluoroquinolone/methicillin resistant Staphylococcus aureus clinical isolate 19-25 assessed as bacterial growth inhibition measured after 16 to 18 hrs by serial dilution method; details: time 16-18 hrs
Staphylococcus aureus [35] = experiment: Antibacterial activity against fluoroquinolone/methicillin resistant Staphylococcus aureus clinical isolate 19-26 assessed as bacterial growth inhibition measured after 16 to 18 hrs by serial dilution method; details: time 16-18 hrs
Staphylococcus aureus [36] = experiment: Antibacterial activity against fluoroquinolone/methicillin resistant Staphylococcus aureus clinical isolate 19-27 assessed as bacterial growth inhibition measured after 16 to 18 hrs by serial dilution method; details: time 16-18 hrs
Staphylococcus aureus [37] = experiment: Antibacterial activity against Staphylococcus aureus Newman assessed as bacterial growth inhibition measured after 16 to 18 hrs by serial dilution method; details: time 16-18 hrs
Staphylococcus aureus [38] = experiment: Antibacterial activity against vancomycin-intermediate methicillin resistant Staphylococcus aureus ATCC 700699 assessed as bacterial growth inhibition measured after 16 to 18 hrs by serial dilution method; details: time 16-18 hrs
Staphylococcus aureus [39] = experiment: Antibacterial activity against methicillin resistant Staphylococcus aureus ATCC 33591 assessed as bacterial growth inhibition measured after 16 to 18 hrs by serial dilution method; details: time 16-18 hrs
Staphylococcus aureus [40] = experiment: Antibacterial activity against methicillin resistant Staphylococcus aureus ATCC 43300 assessed as bacterial growth inhibition measured after 16 to 18 hrs by serial dilution method; details: time 16-18 hrs

CCn1cc(C(=O)O)c(=O)c2cc(F)c(N3CCN(Cn4nc(CN5CCN(c6ccc(F)cc6)CC5)n(-c5ccccc5)c4=O)CC3)cc21
< 0.24 µg/mL: MIC (Staphylococcus aureus [1]) | MIC (Escherichia coli [2]) | MIC (Klebsiella pneumoniae [3])

CCOP(=O)(OCC)C(NS(=O)(=O)Nc1ccccc1OC)c1cc2cccc(C)c2[nH]c1=O (stereo unspecified)
0.125 µg/mL: MIC (Escherichia coli [4]) | MIC (Pseudomonas aeruginosa [5]) | MIC (Staphylococcus aureus [6]) | MIC (Staphylococcus aureus [7]) | MIC (Escherichia coli [8]) | MIC (Pseudomonas aeruginosa [9]) | MIC (Alternaria) | MIC [10]

CCOP(=O)(OCC)C(NS(=O)(=O)Nc1ccc(F)cc1)c1cc2cccc(C)c2[nH]c1=O (stereo unspecified)
0.125 µg/mL: MIC (Alternaria) | MIC [10]
0.5 µg/mL: MIC (Escherichia coli [4]) | MIC (Pseudomonas aeruginosa [5]) | MIC (Staphylococcus aureus [6]) | MIC (Staphylococcus aureus [7]) | MIC (Escherichia coli [8]) | MIC (Pseudomonas aeruginosa [9])

CCOC(=O)c1cn(Cc2nc3ccccc3n2Cc2ccccc2F)c2cc(Cl)c(F)cc2c1=O
1 µg/mL: MIC (Acinetobacter baumannii) | MIC (Pseudomonas aeruginosa [11]) | MIC (Staphylococcus aureus [12]) | MIC (Staphylococcus aureus [13]) | MIC (Escherichia coli [14]) | MIC (Klebsiella pneumoniae [15]) | MIC (Staphylococcus aureus [16]) | MIC (Staphylococcus aureus [17])

COc1c(N2CCCC(N(C)C(=O)c3cccnc3)C2)c(F)cc2c(=O)c(C(=O)O)cn(C3CC3)c12 (stereo unspecified)
0.078 µg/mL: MIC (Staphylococcus aureus [18]) | MIC (Escherichia coli [19])

Cc1ncc([N+](=O)[O-])n1CC(C)OC(=O)c1cn(C2CC2)c2cc(N3CCNCC3)c(F)cc2c1=O (stereo unspecified)
25 mm: zone of inhibition at 250 µg/mL (Escherichia coli [20]) | zone of inhibition at 250 µg/mL (Klebsiella pneumoniae [21]) | zone of inhibition at 250 µg/mL (Pseudomonas aeruginosa [22]) | zone of inhibition at 250 µg/mL (Staphylococcus aureus [23])
≤ 0.17 µg/mL: MIC (Staphylococcus aureus [24])

COc1cc(OC)nc(/N=N/N2CCN(c3cc4c(cc3F)c(=O)c(C(=O)C(C(C)=O)C(C)=O)cn4C3CC3)CC2)n1
0.015 µg/mL: MIC (Staphylococcus aureus [25]) | MIC [26] | MIC (Bacillus subtilis) | MIC (Escherichia coli [27]) | MIC (Klebsiella pneumoniae [28]) | MIC (Enterobacter cloacae)

COC(=O)c1cn(C2CC2)c2cc(N3CCN(CC(=O)OC(C)Cn4c([N+](=O)[O-])cnc4C)CC3)c(F)cc2c1=O (stereo unspecified)
19 mm: zone of inhibition at 250 µg/mL (Escherichia coli [20]) | zone of inhibition at 250 µg/mL (Klebsiella pneumoniae [21]) | zone of inhibition at 250 µg/mL (Pseudomonas aeruginosa [22]) | zone of inhibition at 250 µg/mL (Staphylococcus aureus [23])

COc1c(N2C[C@@H]3CCCN[C@@H]3C2)c(F)cc2c(=O)c(C(=O)O)cn(C3CC3)c12 [MOXIFLOXACIN]
0.078 µg/mL: MIC (Staphylococcus aureus [18]) | MIC (Escherichia coli [19])

CC/C(=C(\c1ccccc1)c1ccc(OCCN(C)C)cc1)c1ccccc1 [TAMOXIFEN]
240 nM: GI50 (MDA-MB-231)
120 nM: GI50 (SiHa)

CN[C@H](CC(C)C)C(=O)N[C@H]1C(=O)N[C@@H](CC(N)=O)C(=O)N[C@H]2C(=O)N[C@H]3C(=O)N[C@H](C(=O)N[C@H](C(=O)O)c4cc(O)cc(O)c4-c4cc3ccc4O)[C@H](O)c3ccc(c(Cl)c3)Oc3cc2cc(c3O[C@@H]2O[C@H](CO)[C@@H](O)[C@H](O)[C@H]2O[C@H]2C[C@](C)(N)[C@H](O)[C@H](C)O2)Oc2ccc(cc2Cl)[C@H]1O [VANCOMYCIN]
0.78 µg/mL: MIC (Staphylococcus aureus [29]) | MIC (Staphylococcus aureus [30]) | MIC (Staphylococcus aureus [31]) | MIC (Staphylococcus aureus [32]) | MIC (Staphylococcus aureus [33]) | MIC (Staphylococcus aureus [34]) | MIC (Staphylococcus aureus [35]) | MIC (Staphylococcus aureus [36]) | MIC (Staphylococcus aureus [37]) | MIC (Staphylococcus aureus [24]) | MIC (Staphylococcus aureus [38]) | MIC (Staphylococcus aureus [39]) | MIC (Staphylococcus aureus [40])
